From PubChem BioAssay (NCI)
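Dose response: 5 concentrations. Exposure: 48 h. Format: 96-well plates. Endpoint: linear interpolation; highest concentration if not reached. TGI denotes the concentration required for complete inhibition of growth.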

Assays:
Experiment in all cases: growth of human tumour cells (NCI), 48 h
LOX IMVI melanoma = system: LOX IMVI melanoma
SK-MEL-28 melanoma = system: SK-MEL-28 melanoma
SNB-19 CNS = system: SNB-19 CNS
CAKI-1 renal = system: CAKI-1 renal
HCC-2998 colon = system: HCC-2998 colon
A549 NSCLC = system: A549 NSCLC
SK-OV-3 ovarian = system: SK-OV-3 ovarian
NCI-H226 lung = system: NCI-H226 lung
PC-3 prostate = system: PC-3 prostate
SF-295 CNS = system: SF-295 CNS
SNB-75 CNS = system: SNB-75 CNS
NCI-H522 lung = system: NCI-H522 lung
UACC-257 melanoma = system: UACC-257 melanoma
TK-10 renal = system: TK-10 renal
UO-31 renal = system: UO-31 renal
786-0 renal = system: 786-0 renal
RPMI-8226 leukemia = system: RPMI-8226 leukemia
M14 melanoma = system: M14 melanoma
SN12C renal = system: SN12C renal
MALME-3M melanoma = system: MALME-3M melanoma

| SMILES | TGI (LOX IMVI melanoma) [µM] | TGI (SK-MEL-28 melanoma) [µM] | TGI (SNB-19 CNS) [µM] | TGI (CAKI-1 renal) [µM] | TGI (HCC-2998 colon) [µM] | TGI (A549 NSCLC) [µM] | TGI (SK-OV-3 ovarian) [µM] | TGI (NCI-H226 lung) [µM] | TGI (PC-3 prostate) [µM] | TGI (SF-295 CNS) [µM] | TGI (SNB-75 CNS) [µM] | TGI (NCI-H522 lung) [µM] | TGI (UACC-257 melanoma) [µM] | TGI (TK-10 renal) [µM] | TGI (UO-31 renal) [µM] | TGI (786-0 renal) [µM] | TGI (RPMI-8226 leukemia) [µM] | TGI (M14 melanoma) [µM] | TGI (SN12C renal) [µM] | TGI (MALME-3M melanoma) [µM] |
| --- | --- | --- | --- | --- | --- | --- | --- | --- | --- | --- | --- | --- | --- | --- | --- | --- | --- | --- | --- | --- |
| O=P1(c2ccccc2)c2ccccc2CCc2ccccc21 | > 100 | > 100 | > 100 | > 100 | > 100 | > 100 | > 100 | > 100 | > 100 | > 100 | > 100 | > 100 | > 100 | > 100 | > 100 | > 100 | > 100 | > 100 | > 100 |  |
| C=C1CCCCCCCCCCC12SCCC2CCCCSC (configuration not stated) | 34.2 | 57.8 | 52.2 |  | 39.2 | > 100 | > 100 | 36.2 | 56.1 | 38.3 |  | 36.8 | 52.8 |  | 60.4 | 87.4 | 46 | 50.1 | 53.9 | 36.2 |
| O=C1C(Cl)=C(N2C(=O)CCCC2=O)C(=O)c2ccccc21 | 42.4 | 33.4 |  | 27.2 | 31.4 | 54.7 | > 100 | > 100 | 41.7 | > 100 | > 100 | 4.53 | 38.7 | 31.3 | 23 | 33 | 40.9 | 37.5 | 46.2 |  |
| COC(=O)[C@H]1C[C@H]1NC(=O)C(CC(=O)OCc1ccccc1)NC(=O)OCc1ccccc1 (some centres not stated) | > 100 | > 100 | > 100 |  | > 100 | > 100 | > 100 | > 100 | > 100 | > 100 | > 100 | > 100 | > 100 | > 100 |  | > 100 | 50.2 | 52.1 | > 100 |  |
| O=C1/C(=C/c2ccc(Cl)cc2)N=C(c2ccccc2)N1c1nc2ccccc2s1 | > 100 | > 100 |  | > 100 | > 100 |  | > 100 | > 100 | > 100 | > 100 | > 100 | 75.1 | > 100 | > 100 | > 100 | > 100 | > 100 | > 100 |  |  |
| COc1ccc2c(c1)c1c(n2CCN(C)C)-c2cccc(OC)c2CC1 | 37.4 | 32 | 46.8 | 29.1 | 34.9 | 40.9 | 35 | 17.1 | 24.2 | 35.9 | 18.9 | 15.6 | 37.7 | 41.5 | 35.4 | > 100 | 18.2 | 24.9 | 35.5 |  |
| Cc1ccc(S(=O)(=O)/N=C(\N)N(C)N=O)cc1 | > 100 | > 100 | > 100 | > 100 |  | > 100 | > 100 | > 100 | > 100 | > 100 | > 100 | > 100 | > 100 | > 100 | > 100 | > 100 | > 100 | > 100 | > 100 | > 100 |
| NCCCCN(CCCN)C(=O)c1ccccc1 |  | > 100 | > 100 | > 100 | > 100 | > 100 | > 100 | > 100 | > 100 | > 100 | > 100 | > 100 | > 100 | > 100 | > 100 | > 100 | > 100 | > 100 | > 100 |  |
| CCC(=O)N1NC(=O)C(CC)(CC)C1=O | > 100 | > 100 | > 100 | > 100 | > 100 | > 100 | > 100 | > 100 | > 100 | > 100 | > 100 | > 100 | > 100 | > 100 | > 100 | > 100 | > 100 | > 100 | > 100 |  |
| Cc1cnc(-c2c[nH]c3ccccc23)nc1-c1c[nH]c2ccccc12 | 17.1 |  | 24.9 | 23.2 | 15.8 | 20.2 | 24 |  | 14.2 | 15.2 | 9.64 |  | 20.5 | 18.1 | 20.8 | 10.7 | > 100 | 16.4 | 8.53 |  |
| Nc1ccc(N=Nc2ccc(-c3ccc(O)cc3)cc2)c2ccc(S(=O)(=O)O)cc12 | > 100 | > 100 | > 100 | > 100 |  | > 100 | > 100 | > 100 | > 100 | > 100 | > 100 | > 100 | > 100 | > 100 | > 100 | > 100 | > 100 | > 100 | > 100 | > 100 |
